Experiments:
[1] = biological target: Human CB1R (Cannabanoid receptor 1) (Homo sapiens (Human), UniProt P21554); assay: CB-1 in vitro cAMP (HTRF) assay in HEK-293 cells; format: cell-based; conditions: HEK-293 cells stably transfected with human CB1R, 250 nM Forskolin, mean where tested more than once, read-out: CB-1 (HEK_cAMP) EC50
Procedure, shortened: (§1)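 HEK-293 cells stably expressing human CB1 or CB2 plated overnight, then tested in HBSS/5 mM HEPES/0.1% BSA with 0.5 mM IBMX and forskolin (1.5 μM working dilution). Intracellular cAMP quantified by competitive HTRF immunoassay (d2-cAMP, cryptate anti-cAMP) against a cAMP standard curve; compounds as 1/3 serial dilutions from 10 mM DMSO stocks.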

[2] = biological target: Human CB2R (Cannabanoid receptor 2) (Homo sapiens (Human), UniProt P34972); assay: CB-2 in vitro cAMP (HTRF) assay in HEK-293 cells; format: cell-based; conditions: HEK-293 cells stably transfected with human CB2R, 250 nM Forskolin, mean where tested more than once, read-out: CB-2 (HEK_cAMP) EC50
Human CB2R (Cannabanoid receptor 2), sequence (P34972 whole entry): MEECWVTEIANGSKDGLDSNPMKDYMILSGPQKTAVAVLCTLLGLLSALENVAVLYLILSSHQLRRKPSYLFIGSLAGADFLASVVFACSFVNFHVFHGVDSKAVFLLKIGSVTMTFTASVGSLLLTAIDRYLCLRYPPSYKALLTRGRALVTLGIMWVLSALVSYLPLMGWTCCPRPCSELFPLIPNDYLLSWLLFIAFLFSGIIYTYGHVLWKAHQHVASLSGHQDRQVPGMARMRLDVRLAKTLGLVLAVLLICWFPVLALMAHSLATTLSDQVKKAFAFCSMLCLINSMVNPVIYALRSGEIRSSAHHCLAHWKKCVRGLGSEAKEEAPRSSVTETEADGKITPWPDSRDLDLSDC
Procedure, shortened: as §1

Human CB1R (Cannabanoid receptor 1), sequence (P21554 whole entry): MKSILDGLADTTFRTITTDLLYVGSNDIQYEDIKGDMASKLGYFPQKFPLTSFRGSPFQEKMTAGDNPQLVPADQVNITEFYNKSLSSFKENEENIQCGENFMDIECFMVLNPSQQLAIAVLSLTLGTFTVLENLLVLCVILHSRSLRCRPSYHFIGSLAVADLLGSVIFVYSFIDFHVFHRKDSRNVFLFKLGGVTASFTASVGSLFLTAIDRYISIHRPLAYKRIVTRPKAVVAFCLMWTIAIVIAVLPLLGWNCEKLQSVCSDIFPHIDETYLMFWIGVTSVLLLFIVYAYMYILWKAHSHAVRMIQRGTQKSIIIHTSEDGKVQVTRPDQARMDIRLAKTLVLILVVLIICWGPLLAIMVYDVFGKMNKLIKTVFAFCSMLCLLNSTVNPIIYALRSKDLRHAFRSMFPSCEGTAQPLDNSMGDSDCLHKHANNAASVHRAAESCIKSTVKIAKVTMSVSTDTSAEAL

SMILES | EC50 [1] [nM] | EC50 [2] [nM]
NC(=O)COc1ccc(N2CCC(c3nn(C4CC4)c4ccc(C(c5ccc(Cl)cc5)c5ccc(Cl)cc5)cc34)CC2)cc1 [Compound 175] | 1130 | > 10000
CNC(=O)c1ccc(S(=O)(=O)N2CCC(c3c4cc(C(c5ccc(Cl)cc5)c5ccc(Cl)cc5)ccc4nn3C3CC3)CC2)cc1F [Compound 176, 4-(4-(5-(bis(4-chlorophenyl)methyl)-2-cyclopropyl-2H-indazol-3-yl)piperidin-1-ylsulfonyl)-2-fluoro-N-methylbenzamide] | 5 | > 10000
O=C(O)c1cccc(N2CCC(c3nn(C4CC4)c4ccc(C(c5ccc(Cl)cc5)c5ccc(Cl)cc5)cc34)CC2)c1 [Compound 178] | 324 | > 10000
NC(=O)c1cccc(N2CCC(c3nn(C4CC4)c4ccc(C(c5ccc(Cl)cc5)c5ccc(Cl)cc5)cc34)CC2)c1 [Compound 179] | 93 | > 10000
O=C(O)Cc1cccc(N2CCC(c3nn(C4CC4)c4ccc(C(c5ccc(Cl)cc5)c5ccc(Cl)cc5)cc34)CC2)c1 [Compound 180] | 6550 | > 10000
O=C(O)Cc1ccc(N2CCC(c3nn(C4CC4)c4ccc(C(c5ccc(Cl)cc5)c5ccc(Cl)cc5)cc34)CC2)cc1 [Compound 181] | 7800 | > 10000
NC(=O)Cc1ccc(N2CCC(c3nn(C4CC4)c4ccc(C(c5ccc(Cl)cc5)c5ccc(Cl)cc5)cc34)CC2)cc1 [Compound 182] | 271 | > 10000
O=C(O)c1cccc(N2CCC(c3c4cc(C(c5ccc(Cl)cc5)c5ccc(Cl)cc5)ccc4nn3C3CC3)CC2)c1 [Compound 183] | 77 | > 10000
NC(=O)c1cccc(N2CCC(c3c4cc(C(c5ccc(Cl)cc5)c5ccc(Cl)cc5)ccc4nn3C3CC3)CC2)c1 [Compound 184, 3-(4-(5-(bis(4-chlorophenyl)methyl)-2-cyclopropyl-2H-indazol-3-yl)piperidin-1-yl)benzamide] | 26 | > 10000
O=C(O)Cc1cccc(N2CCC(c3c4cc(C(c5ccc(Cl)cc5)c5ccc(Cl)cc5)ccc4nn3C3CC3)CC2)c1 [Compound 185] | 833 | > 10000
NC(=O)Cc1ccc(N2CCC(c3c4cc(C(c5ccc(Cl)cc5)c5ccc(Cl)cc5)ccc4nn3C3CC3)CC2)cc1 [Compound 186] | 59 | > 10000
O=C(O)c1ccc(C(O)(c2ccc(Cl)cc2)c2ccc3[nH]nc(C4CCN(S(=O)(=O)C(F)(F)F)CC4)c3c2)cc1 (stereo not drawn) [Compound 187] | 3040 | > 10000
NC(=O)c1ccc(N2CCC(c3nn(C4CC4)c4ccc(C(c5ccc(Cl)cc5)c5ccc(Cl)cc5)cc34)CC2)cc1 [Compound 189] | 23 | > 10000
NC(=O)Cc1cccc(N2CCC(c3nn(C4CC4)c4ccc(C(c5ccc(Cl)cc5)c5ccc(Cl)cc5)cc34)CC2)c1 [Compound 190] | 1080 | > 10000
O=C(O)COc1cccc(N2CCC(c3nn(C4CC4)c4ccc(C(c5ccc(Cl)cc5)c5ccc(Cl)cc5)cc34)CC2)c1 [Compound 191] | 5290 | > 10000
O=C(O)COc1ccc(N2CCC(c3nn(C4CC4)c4ccc(C(c5ccc(Cl)cc5)c5ccc(Cl)cc5)cc34)CC2)cc1 [Compound 192] | 7080 | > 10000
O=C(O)c1ccc(N2CCC(c3c4cc(C(c5ccc(Cl)cc5)c5ccc(Cl)cc5)ccc4nn3C3CC3)CC2)cc1 [Compound 193] | 474 | 9300
NC(=O)c1ccc(N2CCC(c3c4cc(C(c5ccc(Cl)cc5)c5ccc(Cl)cc5)ccc4nn3C3CC3)CC2)cc1 [Compound 194, 4-(4-(5-(bis(4-chlorophenyl)methyl)-2-cyclopropyl-2H-indazol-3-yl)piperidin-1-yl)benzamide] | 48 | > 10000
NC(=O)COc1cccc(N2CCC(c3c4cc(C(c5ccc(Cl)cc5)c5ccc(Cl)cc5)ccc4nn3C3CC3)CC2)c1 [Compound 195, 2-(3-(4-(5-(bis(4-chlorophenyl)methyl)-2-cyclopropyl-2H-indazol-3-yl)piperidin-1-yl)phenoxy)acetamide] | 32 | 6990
O=C(O)COc1ccc(N2CCC(c3c4cc(C(c5ccc(Cl)cc5)c5ccc(Cl)cc5)ccc4nn3C3CC3)CC2)cc1 [Compound 196] | 4180 | > 10000
NC(=O)COc1ccc(N2CCC(c3c4cc(C(c5ccc(Cl)cc5)c5ccc(Cl)cc5)ccc4nn3C3CC3)CC2)cc1 [Compound 197, 2-(4-(4-(5-(bis(4-chlorophenyl)methyl)-2-cyclopropyl-2H-indazol-3-yl)piperidin-1-yl)phenoxy)acetamide] | 32 | 7100
O=C(O)c1ccc(N2CCC(c3nn(C4CC4)c4ccc(C(c5ccc(Cl)cc5)c5ccc(Cl)cc5)cc34)CC2)cc1 [Compound 198] | 150 | > 10000
NC(=O)COc1cccc(N2CCC(c3nn(C4CC4)c4ccc(C(c5ccc(Cl)cc5)c5ccc(Cl)cc5)cc34)CC2)c1 [Compound 199] | 158 | > 10000
O=C(O)c1ccc(S(=O)(=O)N2CCC(c3c4cc(C(c5ccc(Cl)cc5)c5ccc(Cl)cc5)ccc4nn3C3CC3)CC2)cc1F [Compound 200] | 624 | > 10000

SMILES | EC50 [1] [nM] | EC50 [2] [nM]
CC(C)(O)Cn1nc(C2CCN(S(=O)(=O)C(F)(F)F)CC2)c2cc(C(c3ccc(Cl)cc3)c3ccc(Cl)cc3)ccc21 [Compound 201] | 2640 | > 10000
CC(O)Cn1nc(C2CCN(S(=O)(=O)C(F)(F)F)CC2)c2cc(C(c3ccc(Cl)cc3)c3ccc(Cl)cc3)ccc21 (stereo not drawn) [Compound 202] | 169 | > 10000
O=C(O)Cc1ccc(N2CCC(c3c4cc(C(c5ccc(Cl)cc5)c5ccc(Cl)cc5)ccc4nn3C3CC3)CC2)cc1 [Compound 203] | 53 | > 10000
O=C(O)c1ccc(-n2nc(C3CCN(S(=O)(=O)C(F)(F)F)CC3)c3cc(C(c4ccc(Cl)cc4)c4ccc(Cl)cc4)ccc32)cc1 [Compound 204] | 19 | > 10000
NC(=O)c1ccc(-n2nc(C3CCN(S(=O)(=O)C(F)(F)F)CC3)c3cc(C(c4ccc(Cl)cc4)c4ccc(Cl)cc4)ccc32)cc1 [Compound 205] | 6 | 2120
NC(=O)c1ccc(N2CCC(c3n[nH]c4ccc(C(c5ccc(Cl)cc5)c5ccc(Cl)cc5)cc34)CC2)cc1 [Compound 208] | 68 | > 10000
O=C(O)c1ccc(CN2CCC(c3nn(C4CC4)c4ccc(C(c5ccc(Cl)cc5)c5ccc(Cl)cc5)cc34)CC2)cc1 [Compound 209] | 68 | > 10000
NC(=O)c1ccc(CN2CCC(c3nn(C4CC4)c4ccc(C(c5ccc(Cl)cc5)c5ccc(Cl)cc5)cc34)CC2)cc1 [Compound 210] | 134 | > 10000
O=C(O)COc1ccc(N2CCC(c3n[nH]c4ccc(C(c5ccc(Cl)cc5)c5ccc(Cl)cc5)cc34)CC2)cc1 [Compound 211] | 4690 | > 10000
O=C(O)c1cccc(N2CCC(c3n[nH]c4ccc(C(c5ccc(Cl)cc5)c5ccc(Cl)cc5)cc34)CC2)c1 [Compound 212] | 1830 | > 10000
O=C(O)c1ccc(N2CCC(c3n[nH]c4ccc(C(c5ccc(Cl)cc5)c5ccc(Cl)cc5)cc34)CC2)cc1 [Compound 213] | 367 | > 10000
O=C(O)Cc1cccc(N2CCC(c3n[nH]c4ccc(C(c5ccc(Cl)cc5)c5ccc(Cl)cc5)cc34)CC2)c1 [Compound 214] | 3240 | > 10000
O=C(O)Cc1ccc(N2CCC(c3n[nH]c4ccc(C(c5ccc(Cl)cc5)c5ccc(Cl)cc5)cc34)CC2)cc1 [Compound 215] | 2960 | > 10000
O=C(O)COc1cccc(N2CCC(c3n[nH]c4ccc(C(c5ccc(Cl)cc5)c5ccc(Cl)cc5)cc34)CC2)c1 [Compound 216] | 1280 | > 10000
NC(=O)COc1ccc(N2CCC(c3n[nH]c4ccc(C(c5ccc(Cl)cc5)c5ccc(Cl)cc5)cc34)CC2)cc1 [Compound 217] | 1030 | 4100
NC(=O)c1cccc(N2CCC(c3n[nH]c4ccc(C(c5ccc(Cl)cc5)c5ccc(Cl)cc5)cc34)CC2)c1 [Compound 218] | 265 | > 10000
O=S(=O)(C(F)F)N1CCC(c2n[nH]c3ccc(C(c4ccc(Cl)cc4)c4ccc(Cl)cc4)cc23)CC1 [Compound 219] | 1540 | > 10000
NC(=O)c1cccc(CN2CCC(c3n[nH]c4ccc(C(c5ccc(Cl)cc5)c5ccc(Cl)cc5)cc34)CC2)c1 [Compound 220] | 27 | > 10000
O=C(O)c1ccc(CN2CCC(c3n[nH]c4ccc(C(c5ccc(Cl)cc5)c5ccc(Cl)cc5)cc34)CC2)cc1 [Compound 221] | 134 | > 42000
NC(=O)c1ccc(CN2CCC(c3n[nH]c4ccc(C(c5ccc(Cl)cc5)c5ccc(Cl)cc5)cc34)CC2)cc1 [Compound 222] | 163 | > 10000
NC(=O)Cc1ccc(N2CCC(c3n[nH]c4ccc(C(c5ccc(Cl)cc5)c5ccc(Cl)cc5)cc34)CC2)cc1 [Compound 223] | 699 | > 10000
NC(=O)COc1ccc(N2CCC(c3n[nH]c4ccc(C(c5ccc(Cl)cc5)c5ccc(Cl)cc5)cc34)CC2)cc1 [Compound 224] | 2080 | > 10000
O=C(O)c1cccc(CN2CCC(c3n[nH]c4ccc(C(c5ccc(Cl)cc5)c5ccc(Cl)cc5)cc34)CC2)c1 [Compound 225] | 56 | 3300
Nc1ccc(C(c2ccc(Cl)cc2)c2ccc3[nH]nc(N4CCN(S(=O)(=O)C(F)(F)F)CC4)c3c2)cc1 (stereo not drawn) [Compound 226] | 8 | 5500

Reference: patent US9682940B2, “Indazole derivatives useful as CB-1 inverse agonists” (Janssen Pharmaceutica NV, priority 2015, dated 2017)
